In paper PMC11678531, “C118P Suppresses Gastric Cancer Growth via Promoting Autophagy–Lysosomal Degradation of RAB1A” (Pharmaceutics, 2024):

Target: T1, RAB1A (Human Rab1a Recombinant protein) (Homo sapiens, UniProt P62820)
T1 construct: commercial recombinant protein (Shanghai Chunmai Biotechnology); RED-NHS labelled
Assay: microscale thermophoresis
Format: binding
Details: RED-NHS labelled protein; room temperature; C118P 0.61 pM to 20 µM

T1 sequence (P62820 2-205): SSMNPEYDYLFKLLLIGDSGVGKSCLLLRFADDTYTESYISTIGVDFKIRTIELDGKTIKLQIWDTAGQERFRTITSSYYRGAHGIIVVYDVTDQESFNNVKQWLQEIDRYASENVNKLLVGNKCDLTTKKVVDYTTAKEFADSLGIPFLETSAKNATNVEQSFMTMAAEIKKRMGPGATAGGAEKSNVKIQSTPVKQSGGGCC

- Kd: 3.13 nM
Structure (SMILES): COc1cc(OC)cc(-c2nc[nH]c2-c2ccc(OC)c(OP(=O)(O)O)c2)c1 [C118P]
